This note sets out measurements from patent publication US20220249441A1, “Homodimeric Tobramycin Adjuvant Repurposes Novobiocin as an Effective Antibacterial Agent Against Gram-Negative Bacteria” (priority 2019, published 2022).

The data set deals with porcine erythrocytes.

Method: Hemolytic Assay. The hemolytic activities of the newly synthesized compounds were determined and quantified as the amount of hemoglobin released by lysing porcine erythrocytes. […] The final cell concentration used was 3×10^8 cells/mL. Compounds were serially diluted with PBS and added to wells in a 96-well plate at twice the desired concentrations. […] Intact erythrocytes were subsequently pelleted by centrifuging at 1000 g at 4° C. for 10 mins, and the supernatants were transferred to a new 96-well plate. […] Blood cells in PBS (0% hemolysis) and 0.1% Triton X-100 (100% hemolysis) were used as negative and positive controls, respectively. Percent hemolysis was calculated as [% hemolysis=(X−0%)/(100%−0%)], where X is the optical density values of the compounds at different concentrations (49).

Turning to `NC[C@H]1O[C@H](O[C@H]2[C@H](OCCCCCCCCn3cc(CCCCO[C@@H]4[C@@H](O[C@H]5O[C@H](CO)[C@@H](O)[C@H](N)[C@H]5O)[C@H](N)C[C@H](N)[C@H]4O[C@H]4O[C@H](CN)[C@@H](O)C[C@H]4N)nn3)[C@@H](O[C@H]3O[C@H](CO)[C@@H](O)[C@H](N)[C@H]3O)[C@H](N)C[C@@H]2N)[C@H](N)C[C@@H]1O.O=C(O)C(F)(F)F.O=C(O)C(F)(F)F.O=C(O)C(F)(F)F.O=C(O)C(F)(F)F.O=C(O)C(F)(F)F.O=C(O)C(F)(F)F.O=C(O)C(F)(F)F.O=C(O)C(F)(F)F.O=C(O)C(F)(F)F.O=C(O)C(F)(F)F` [Compound 3, Tobramycin Homodimer 3], the “hemolysis of porcine erythrocytes” value was “non-hemolytic”.
Next, `NC[C@H]1O[C@H](O[C@H]2[C@H](OCCCCCCn3cc(CCCCO[C@@H]4[C@@H](O[C@H]5O[C@H](CO)[C@@H](O)[C@H](N)[C@H]5O)[C@H](N)C[C@H](N)[C@H]4O[C@H]4O[C@H](CN)[C@@H](O)C[C@H]4N)nn3)[C@@H](O[C@H]3O[C@H](CO)[C@@H](O)[C@H](N)[C@H]3O)[C@H](N)C[C@@H]2N)[C@H](N)C[C@@H]1O.O=C(O)C(F)(F)F.O=C(O)C(F)(F)F.O=C(O)C(F)(F)F.O=C(O)C(F)(F)F.O=C(O)C(F)(F)F.O=C(O)C(F)(F)F.O=C(O)C(F)(F)F.O=C(O)C(F)(F)F.O=C(O)C(F)(F)F.O=C(O)C(F)(F)F` [Compound 2, Tobramycin Homodimer 2]: “non-hemolytic”.
